Values quoted from earlier work in patent US11648313B2, “Multimodal therapy for cancer cell destruction” (Southeast Missouri State University, priority 2015, dated 2023).

How the values were obtained:
NF-kB = details: neuroblastoma cells
FAK = FAK (Homo sapiens, UniProt Q05397)
Chain of FAK (Q05397 whole entry): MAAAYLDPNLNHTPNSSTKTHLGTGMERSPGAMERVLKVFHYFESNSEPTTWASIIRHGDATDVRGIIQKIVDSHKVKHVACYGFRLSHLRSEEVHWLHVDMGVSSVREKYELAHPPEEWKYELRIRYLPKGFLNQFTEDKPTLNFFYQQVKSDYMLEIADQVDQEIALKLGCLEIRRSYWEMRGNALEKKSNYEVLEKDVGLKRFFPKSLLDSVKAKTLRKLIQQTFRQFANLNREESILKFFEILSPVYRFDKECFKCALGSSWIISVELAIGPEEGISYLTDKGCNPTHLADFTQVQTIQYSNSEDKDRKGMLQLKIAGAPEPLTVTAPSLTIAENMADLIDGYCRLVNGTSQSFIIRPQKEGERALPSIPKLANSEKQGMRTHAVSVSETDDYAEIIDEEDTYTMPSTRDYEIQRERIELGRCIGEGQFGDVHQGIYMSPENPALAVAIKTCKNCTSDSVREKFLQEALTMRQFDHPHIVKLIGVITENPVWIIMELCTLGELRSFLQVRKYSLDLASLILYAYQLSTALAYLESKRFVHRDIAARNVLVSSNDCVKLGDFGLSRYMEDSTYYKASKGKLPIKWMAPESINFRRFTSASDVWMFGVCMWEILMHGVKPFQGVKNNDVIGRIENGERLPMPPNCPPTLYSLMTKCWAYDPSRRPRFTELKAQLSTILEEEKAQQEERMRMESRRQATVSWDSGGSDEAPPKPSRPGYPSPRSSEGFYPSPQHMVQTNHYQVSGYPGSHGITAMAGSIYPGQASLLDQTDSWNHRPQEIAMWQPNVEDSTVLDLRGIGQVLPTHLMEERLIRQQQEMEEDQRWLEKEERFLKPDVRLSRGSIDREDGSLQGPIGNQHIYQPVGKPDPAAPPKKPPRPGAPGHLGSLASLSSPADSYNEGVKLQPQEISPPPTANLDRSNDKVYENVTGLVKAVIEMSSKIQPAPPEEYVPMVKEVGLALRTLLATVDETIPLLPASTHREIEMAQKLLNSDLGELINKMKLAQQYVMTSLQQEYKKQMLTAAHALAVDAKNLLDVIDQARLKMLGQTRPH

| SMILES | NF-kB activation (NF-kB) | effect of FAK inhibition on cell survival, apoptosis, cell cycle (FAK) | water solubility |
| --- | --- | --- | --- |
| COc1cc([C@@H]2c3cc4c(cc3[C@@H](O[C@@H]3O[C@@H]5CO[C@@H](C)O[C@H]5[C@H](O)[C@H]3O)[C@H]3COC(=O)[C@H]23)OCO4)cc(OC)c1O [VP16] | trigger NF-kB activation | – | – |
| COc1cccc2c1C(=O)c1c(O)c3c(c(O)c1C2=O)C[C@@](O)(C(=O)CO)C[C@@H]3O[C@H]1C[C@H](N)[C@H](O)[C@H](C)O1 [doxorubicin] | trigger NF-kB activation | – | – |
| Cl.Cl.Cl.Cl.Nc1cc(N)c(N)cc1N [Y15] | – | decreased cell survival, increased apoptosis, and G2 cell cycle arrest | adequate water solubility |
| CNC(=O)c1ccccc1Nc1nc(Nc2ccc(N3CCOCC3)cc2OC)ncc1Cl [NVP-TAE 226] | – | decreased cell survival, increased apoptosis, and G2 cell cycle arrest | adequate water solubility |
